{
  "source": "paper PMC11579541",
  "about": "“In vitro, in vivo, and in silico approaches for evaluating the preclinical DMPK profiles of ammoxetine, a novel chiral serotonin and norepinephrine reuptake inhibitor” (Frontiers in Pharmacology, 2024)",
  "format_in_all_cases": "in vitro ADME",
  "key": {"CYP 1A2": {"target": "T1, CYP 1A2 (Homo sapiens, UniProt P05177)", "T1 sequence (P05177 1-516)": "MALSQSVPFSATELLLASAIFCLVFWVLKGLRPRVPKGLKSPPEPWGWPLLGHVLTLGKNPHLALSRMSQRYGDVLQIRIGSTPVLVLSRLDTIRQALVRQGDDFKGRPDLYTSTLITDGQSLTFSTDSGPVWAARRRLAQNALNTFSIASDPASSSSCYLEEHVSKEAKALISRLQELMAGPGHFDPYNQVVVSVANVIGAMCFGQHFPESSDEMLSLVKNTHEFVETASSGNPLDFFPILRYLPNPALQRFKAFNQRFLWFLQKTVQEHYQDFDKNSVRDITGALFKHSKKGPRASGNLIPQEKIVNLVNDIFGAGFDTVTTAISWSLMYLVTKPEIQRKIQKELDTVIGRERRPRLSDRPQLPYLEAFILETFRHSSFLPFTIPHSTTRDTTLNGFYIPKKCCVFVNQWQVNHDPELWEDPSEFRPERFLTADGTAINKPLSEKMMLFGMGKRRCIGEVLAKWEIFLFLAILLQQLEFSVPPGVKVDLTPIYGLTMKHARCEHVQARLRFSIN", "test": "CYP inhibition, cocktail-substrate method in HLM", "parameters": "0.5 mg/mL HLM, 1 mmol/L NADPH, and a cocktail of 10 probe substrates for 9 CYP isoforms; tissue BD (Woburn, USA); host or cells: pooled human liver microsomes", "description": "(§1) To assess the CYP inhibition profiling of ammoxetine, a high-throughput assay based on the cocktail-substrate method was performed, as described in the literature ([Kim et al., 2005]; [Kozakai et al., 2014]). Microsomal incubations were conducted in triplicate for 30 min at 37°C in a reaction system (200 μL) consisting of […] potassium phosphate buffer (pH 7.4), 0.5 mg/mL HLM, 1 mmol/L NADPH, and a cocktail of 10 probe substrates for 9 CYP isoforms. The final concentration of each CYP-specific substrate was chosen to be close to the Michaelis-Menten constant (K m ) value of the respective substrate ([Kim et al., 2005]; [Lee et al., 2024]). For instance, phenacetin (CYP 1A2) was used at a concentration of 50 μmol/L, coumarin (CYP 2A6) at 5 μmol/L, bupropion (CYP 2B6) at 50 μmol/L, amodiaquine (CYP 2C8) at 5 μmol/L, tolbutamide (CYP 2C9) at 100 μmol/L, S-mephenytoin (CYP 2C19) at 100 μmol/L, dextromethorphan (CYP 2D6) at 5 μmol/L, chlorzoxazone (CYP 2E1) at 50 μmol/L, and testosterone and midazolam (CYP 3A4) at 50 μmol/L. Ammoxetine was evaluated at five concentrations: 0.1, 1, 10, 50, and 100 μmol/L. Additionally, a blank control without ammoxetine was included. The incubation was terminated by adding an equal volume of ice-cold acetonitrile/methanol (1:1, v/v) along with the IS, dexmedetomidine (1 ng/mL). After a 20-fold dilution, the mixture was centrifuged at 13,800×g for 10 min at 4°C. The supernatants were used to measure the levels of metabolites from the respective probe substrates using an LC-MS-MS method. The half-maximal inhibitory concentration (IC50) values were subsequently calculated."}, "CYP 2C19": {"target": "CYP 2C19 (Homo sapiens, UniProt P33261)", "sequence (P33261 whole entry, canonical isoform)": "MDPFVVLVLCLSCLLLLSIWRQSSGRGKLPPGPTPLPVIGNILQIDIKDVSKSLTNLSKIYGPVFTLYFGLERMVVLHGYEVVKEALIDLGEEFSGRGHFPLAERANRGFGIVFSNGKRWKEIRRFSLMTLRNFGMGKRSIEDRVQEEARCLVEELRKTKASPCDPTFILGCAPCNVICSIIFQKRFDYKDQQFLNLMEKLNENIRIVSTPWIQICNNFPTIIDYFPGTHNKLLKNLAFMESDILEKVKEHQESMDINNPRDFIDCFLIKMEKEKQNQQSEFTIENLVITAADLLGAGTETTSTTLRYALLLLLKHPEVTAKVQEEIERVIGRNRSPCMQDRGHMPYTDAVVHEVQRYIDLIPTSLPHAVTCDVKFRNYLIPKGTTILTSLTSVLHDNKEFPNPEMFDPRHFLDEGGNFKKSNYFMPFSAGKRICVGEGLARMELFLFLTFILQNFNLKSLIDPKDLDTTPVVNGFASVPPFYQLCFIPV", "test": "CYP inhibition, cocktail-substrate method in HLM", "parameters": "0.5 mg/mL HLM, 1 mmol/L NADPH, and a cocktail of 10 probe substrates for 9 CYP isoforms; tissue BD (Woburn, USA); host or cells: pooled human liver microsomes", "settings": "probe S-mephenytoin", "description": "as §1"}, "CYP 2D6": {"target": "CYP 2D6 (Homo sapiens, UniProt P10635)", "sequence (P10635 whole entry, canonical isoform)": "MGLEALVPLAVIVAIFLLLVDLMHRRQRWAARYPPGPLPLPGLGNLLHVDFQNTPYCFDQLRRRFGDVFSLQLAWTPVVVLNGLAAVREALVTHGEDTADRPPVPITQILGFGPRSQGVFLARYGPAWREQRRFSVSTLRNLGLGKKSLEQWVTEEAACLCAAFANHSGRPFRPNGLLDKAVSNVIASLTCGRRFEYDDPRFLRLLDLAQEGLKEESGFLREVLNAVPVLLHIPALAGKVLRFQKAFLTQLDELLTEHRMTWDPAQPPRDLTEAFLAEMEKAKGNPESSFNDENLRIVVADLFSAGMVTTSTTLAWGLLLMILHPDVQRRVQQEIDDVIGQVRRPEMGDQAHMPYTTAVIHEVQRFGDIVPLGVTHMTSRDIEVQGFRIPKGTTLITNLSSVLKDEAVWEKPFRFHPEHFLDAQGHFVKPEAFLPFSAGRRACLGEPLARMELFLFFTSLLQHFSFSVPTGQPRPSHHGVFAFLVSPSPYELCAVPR", "test": "CYP inhibition, cocktail-substrate method in HLM", "parameters": "0.5 mg/mL HLM, 1 mmol/L NADPH, and a cocktail of 10 probe substrates for 9 CYP isoforms; tissue BD (Woburn, USA); host or cells: pooled human liver microsomes", "description": "as §1"}, "[1]": {"test": "Stability of ammoxetine in rat plasma (method validation)", "description": "LC-MS-MS methods were developed and validated to accurately quantify ammoxetine in rat and beagle dog plasma, as well as in rat tissues, urine, feces, and bile. The methods involved direct protein precipitation using methanol, providing a straightforward and rapid sample preparation process with high extraction recovery rates (absolute recoveries >85% in all matrices). […] The precision and accuracy of the plasma methods were evaluated through intra-day and inter-day analyses, yielding satisfactory results. Additionally, stability tests conducted in rat and beagle dog plasma met the analytical requirements for determination. Furthermore, the majority of the analytes met the necessary criteria for matrix effects when quantifying ammoxetine in biological samples. The developed methods are well-suited for determining ammoxetine concentrations in rat and beagle dog biological samples, enabling in vivo studies of this compound. They provide specific and highly sensitive quantification, facilitating investigations into the drug’s behavior in vivo. Detailed results regarding the establishment and validation of these analytical methods can be found in Supplementary Data Sheet 2."}},
  "data": [
    {"smiles": "CNCC[C@H](Oc1cccc2c1OCO2)c1cccs1", "note": "[ammoxetine]", "values": [
      {"measurement": "IC50", "setting": "CYP 1A2; HLM, probe phenacetin", "result": "> 100", "unit": "µM"},
      {"measurement": "probe substrate levels, % of the original blank group", "setting": "CYP 1A2; ammoxetine 100 μmol/L", "result": "~72.30", "unit": "%"},
      {"measurement": "IC50", "setting": "CYP 2C19", "result": "> 100", "unit": "µM"},
      {"measurement": "IC50", "setting": "CYP 2D6; HLM, probe dextromethorphan", "result": "> 100", "unit": "µM"},
      {"measurement": "probe substrate levels, % of the original blank group", "setting": "CYP 2D6; ammoxetine 100 μmol/L", "result": "approximately 65.86%"},
      {"measurement": "Stability in rat plasma, Measured (%)", "setting": "[1]; 5 ng/mL, -30℃ for 15d", "result": "106.00±2.00", "unit": "%"},
      {"measurement": "Stability in rat plasma, Measured (%)", "setting": "[1]; 5 ng/mL, in auto-sampler for 24h", "result": "114.00±10.00", "unit": "%"},
      {"measurement": "Stability in rat plasma, Measured (%)", "setting": "[1]; 5 ng/mL, room temperature for 4h", "result": "94.00±6.00", "unit": "%"},
      {"measurement": "Stability in rat plasma, Measured (%)", "setting": "[1]; 100 ng/mL, -30℃ for 15d", "result": "105.90±8.30", "unit": "%"},
      {"measurement": "Stability in rat plasma, Measured (%)", "setting": "[1]; 100 ng/mL, in auto-sampler for 24h", "result": "111.20±5.90", "unit": "%"},
      {"measurement": "Stability in rat plasma, Measured (%)", "setting": "[1]; 100 ng/mL, room temperature for 4h", "result": "108.90±7.40", "unit": "%"},
      {"measurement": "Stability in rat plasma, Measured (%)", "setting": "[1]; 800 ng/mL, -30℃ for 15d", "result": "111.74±2.73", "unit": "%"},
      {"measurement": "Stability in rat plasma, Measured (%)", "setting": "[1]; 800 ng/mL, in auto-sampler for 24h", "result": "106.49±0.78", "unit": "%"},
      {"measurement": "Stability in rat plasma, Measured (%)", "setting": "[1]; 800 ng/mL, room temperature for 4h", "result": "114.33±0.73", "unit": "%"}
    ]}
  ]
}
